Experiments:
[1] = test system: bluegrass (annual bluegrass, Poa annua); experiment: Test C plant response; format: in vivo; details: Preemergence, scale 0 to 100
[2] = test system: blackgrass (Alopecurus myosuroides); experiment: Test C plant response; format: in vivo; details: Preemergence, scale 0 to 100
[3] = test system: canarygrass (Phalaris minor); experiment: Test C plant response; format: in vivo; details: Preemergence, 125 g ai/ha; scale 0 to 100
[4] = test system: chickweed (common chickweed, Stellaria media); experiment: Test C plant response; format: in vivo; details: Preemergence, 125 g ai/ha; scale 0 to 100
[5] = test system: galium (catchweed bedstraw, Galium aparine); experiment: Test C plant response; format: in vivo; details: Preemergence, scale 0 to 100
[6] = test system: bromegrass (downy bromegrass, Bromus tectorum); experiment: Test C plant response; format: in vivo; details: Preemergence, scale 0 to 100
[7] = test system: field poppy (Papaver rhoeas); experiment: Test C plant response; format: in vivo; details: Preemergence, scale 0 to 100
[8] = test system: field violet (Viola arvensis); experiment: Test C plant response; format: in vivo; details: Preemergence, scale 0 to 100
[9] = test system: green foxtail (Setaria viridis); experiment: Test C plant response; format: in vivo; details: Preemergence, scale 0 to 100
[10] = test system: deadnettle (henbit deadnettle, Lamium amplexicaule); experiment: Test C plant response; format: in vivo; details: Preemergence, scale 0 to 100
[11] = test system: Italian ryegrass (Lolium multiflorum); experiment: Test C plant response; format: in vivo; details: Preemergence, scale 0 to 100
kochia (Kochia scoparia) = experiment: Test C plant response; format: in vivo; details: Preemergence, scale 0 to 100
[12] = test system: oilseed rape (Brassica napus); experiment: Test C plant response; format: in vivo; details: Preemergence, scale 0 to 100
[13] = test system: Russian thistle (Salsola iberica); experiment: Test C plant response; format: in vivo; details: Preemergence, scale 0 to 100
[14] = test system: buckwheat (wild buckwheat, Polygonum convolvulus); experiment: Test C plant response; format: in vivo; details: Preemergence, scale 0 to 100
[15] = test system: wild mustard (Sinapis arvensis); experiment: Test C plant response; format: in vivo; details: Preemergence, scale 0 to 100
wild oat (Avena fatua) = experiment: Test C plant response; format: in vivo; details: Preemergence, scale 0 to 100
[16] = test system: wild radish (Raphanus raphanistrum); experiment: Test C plant response; format: in vivo; details: Preemergence, scale 0 to 100
[17] = test system: windgrass (Apera spica-venti); experiment: Test C plant response; format: in vivo; details: Preemergence, scale 0 to 100
[18] = test system: winter barley (Hordeum vulgare); experiment: Test C plant response; format: in vivo; details: Preemergence, scale 0 to 100
[19] = test system: winter wheat (Triticum aestivum); experiment: Test C plant response; format: in vivo; details: Preemergence, scale 0 to 100
[20] = test system: sprangletop (bearded (i.e. Brdd.) sprangletop, Leptochloa fascicularis); experiment: Test E flooded paddy rice and weeds; format: in vivo; details: applied to paddy water, 21 days, scale 0 to 100
How it was run: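 Greenhouse paddy test: compound added into 3 cm floodwater when crop and weeds reached 2.0 to 2.5 leaves; depth held throughout. Soil was Tama silt loam, 2.6% organic matter; 30/27° C, 16-h light. Injury scored visually at 21 days on a 0 (no effect) to 100 (complete control) scale.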

Cc1ccccc1-n1c(-c2ccccc2)ncc(C(=O)C2=C(O)CCCC2=O)c1=O [Compound 12]
80: Plant response rating: Field Poppy ([7]; 31 g ai/ha)
30: Plant response rating: Oilseed Rape ([12]; 62 g ai/ha)
35: Plant response rating: Bluegrass ([1]; 125 g ai/ha) | Plant response rating: Galium ([5]; 62 g ai/ha) | Plant response rating: Galium ([5]; 125 g ai/ha) | Plant response rating: Deadnettle ([10]; 16 g ai/ha)
5: Plant response rating: Kochia (kochia (Kochia scoparia); 62 g ai/ha) | Plant response rating: Kochia (kochia (Kochia scoparia); 16 g ai/ha) | Plant response rating: Kochia (kochia (Kochia scoparia); 31 g ai/ha) | Plant response rating: Mustard, Wild ([15]; 62 g ai/ha)
100: Plant response rating: Deadnettle ([10]; 125 g ai/ha)
90: Plant response rating: Deadnettle ([10]; 62 g ai/ha)
50: Plant response rating: Chickweed [4] | Plant response rating: Field Poppy ([7]; 16 g ai/ha) | Plant response rating: Deadnettle ([10]; 31 g ai/ha)
25: Plant response rating: Kochia (kochia (Kochia scoparia); 125 g ai/ha)
40: Plant response rating: Oilseed Rape ([12]; 125 g ai/ha) | Plant response rating: Buckwheat, Wild ([14]; 125 g ai/ha) | Plant response rating: Windgrass ([17]; 62 g ai/ha) | Plant response rating: Windgrass ([17]; 125 g ai/ha)
20: Plant response rating: Bluegrass ([1]; 62 g ai/ha) | Plant response rating: Canarygrass [3] | Plant response rating: Oilseed Rape ([12]; 31 g ai/ha) | Plant response rating: Windgrass ([17]; 16 g ai/ha) | Plant response rating: Windgrass ([17]; 31 g ai/ha)
98: Plant response rating: Field Poppy ([7]; 62 g ai/ha) | Plant response rating: Field Poppy ([7]; 125 g ai/ha)
0: Plant response rating: Bluegrass ([1]; 16 g ai/ha) | Plant response rating: Bluegrass ([1]; 31 g ai/ha) | Plant response rating: Blackgrass ([2]; 62 g ai/ha) | Plant response rating: Blackgrass ([2]; 125 g ai/ha) | Plant response rating: Blackgrass ([2]; 16 g ai/ha) | Plant response rating: Blackgrass ([2]; 31 g ai/ha) | Plant response rating: Galium ([5]; 16 g ai/ha) | Plant response rating: Galium ([5]; 31 g ai/ha) | Plant response rating: Bromegrass, Downy ([6]; 62 g ai/ha) | Plant response rating: Bromegrass, Downy ([6]; 125 g ai/ha) | Plant response rating: Bromegrass, Downy ([6]; 16 g ai/ha) | Plant response rating: Bromegrass, Downy ([6]; 31 g ai/ha) | Plant response rating: Field Violet ([8]; 62 g ai/ha) | Plant response rating: Field Violet ([8]; 125 g ai/ha) | Plant response rating: Field Violet ([8]; 16 g ai/ha) | Plant response rating: Field Violet ([8]; 31 g ai/ha) | Plant response rating: Foxtail, Green ([9]; 62 g ai/ha) | Plant response rating: Foxtail, Green ([9]; 125 g ai/ha) | Plant response rating: Foxtail, Green ([9]; 16 g ai/ha) | Plant response rating: Foxtail, Green ([9]; 31 g ai/ha) | Plant response rating: Ryegrass, Italian ([11]; 62 g ai/ha) | Plant response rating: Ryegrass, Italian ([11]; 125 g ai/ha) | Plant response rating: Ryegrass, Italian ([11]; 16 g ai/ha) | Plant response rating: Ryegrass, Italian ([11]; 31 g ai/ha) | Plant response rating: Oilseed Rape ([12]; 16 g ai/ha) | Plant response rating: Russian Thistle ([13]; 62 g ai/ha) | Plant response rating: Russian Thistle ([13]; 16 g ai/ha) | Plant response rating: Russian Thistle ([13]; 31 g ai/ha) | Plant response rating: Buckwheat, Wild ([14]; 62 g ai/ha) | Plant response rating: Buckwheat, Wild ([14]; 16 g ai/ha) | Plant response rating: Buckwheat, Wild ([14]; 31 g ai/ha) | Plant response rating: Mustard, Wild ([15]; 16 g ai/ha) | Plant response rating: Oat, Wild (wild oat (Avena fatua); 62 g ai/ha) | Plant response rating: Oat, Wild (wild oat (Avena fatua); 125 g ai/ha) | Plant response rating: Oat, Wild (wild oat (Avena fatua); 16 g ai/ha) | Plant response rating: Oat, Wild (wild oat (Avena fatua); 31 g ai/ha) | Plant response rating: Radish, Wild ([16]; 62 g ai/ha) | Plant response rating: Radish, Wild ([16]; 125 g ai/ha) | Plant response rating: Radish, Wild ([16]; 16 g ai/ha) | Plant response rating: Radish, Wild ([16]; 31 g ai/ha) | Plant response rating: Barley, Winter ([18]; 62 g ai/ha) | Plant response rating: Barley, Winter ([18]; 125 g ai/ha) | Plant response rating: Barley, Winter ([18]; 16 g ai/ha) | Plant response rating: Barley, Winter ([18]; 31 g ai/ha) | Plant response rating: Wheat, Winter ([19]; 62 g ai/ha) | Plant response rating: Wheat, Winter ([19]; 125 g ai/ha) | Plant response rating: Wheat, Winter ([19]; 16 g ai/ha) | Plant response rating: Wheat, Winter ([19]; 31 g ai/ha)

O=C1CCCC(O)=C1C(=O)c1cnc(-c2ccccc2)n(Cc2ccccc2)c1=O [Compound 17, 5-[(2-hydroxy-6-oxo-1-cyclohexen-1-yl)carbonyl]-2-phenyl-3-(phenylmethyl)-4(3H)-pyrimidinone]
57 to 58 °C: melting point

COc1ccc(-n2c(-c3ccccc3)ncc(C(=O)C3=C(O)CCCC3=O)c2=O)cc1OC [Compound 218]
95: Plant response rating, Sprangletop, Brdd., Flood ([20]; 250 g ai/ha)
70: Plant response rating, Sprangletop, Brdd., Flood ([20]; 64 g ai/ha) | Plant response rating, Sprangletop, Brdd., Flood ([20]; 125 g ai/ha)
65: Plant response rating, Sprangletop, Brdd., Flood ([20]; 32 g ai/ha)

From patent US8952024B2, “Herbicidal pyrimidone derivatives” (E I du Pont de Nemours and Company, priority 2009, dated 2015)
